These results are taken from patent US4912119A, “Imidazolylguanidine derivatives and compositions containing these compounds” (Heumann Pharma GmBH & Co., priority 1986, dated 1990).

Where a name gives a salt, the structure may show the parent alone.

For assay [1], the target named is T1, histamine-H2 receptors (Cavia porcellus, UniProt P47747).
T1 construct: determined on isolated atrium and ileum of guinea-pig; from tissue; host or cells: isolated guinea-pig atrium
As to the kind of experiment: H2-agonistic activity, isolated guinea-pig atrium (method of van Rossum, cumulative dose-response curves). Conditions: read-out: pD2 -value (Atrium) (converted). In kind it is biochemical. From the text:
(§1) The compounds according to this invention are distinguished by a novel, hitherto unknown and undescribed pharmacological overall activity. The new class of structure according to this invention has both a H1 -antagonistic active component and an H2 -agonistic component. These manifest the pharmacological results shown below. One recognized method of determining the H1 -antagonistic activity is the determination of the pA2 -values in vitro (O. Arunlakshana and H. O. Schild, (1959), "Some Quantitative Uses of Drug Antagonists", Br. J. Pharmac. Chemother, 14, 48-58). To determine the H2 -agonistic activity (pD2 -values), the method of J. M. van Rossum, (1963) is employed, described in "Cumulative Dose-Response Curves II. Technique for the Making of Dose-Response Curves in Isolated Organs and the Evaluation of Drug Parameters", Arch. Intern. Pharmacodyn. Therap. 143, 299-307. |(determined on isolated atrium and ileum of guinea-pig)

The target of assay [2] is T2, histamine H1 receptor (Cavia porcellus, UniProt P31389).
T2 construct: determined on isolated atrium and ileum of guinea-pig; from tissue; host or cells: isolated guinea-pig ileum
T2 sequence (P31389 whole entry): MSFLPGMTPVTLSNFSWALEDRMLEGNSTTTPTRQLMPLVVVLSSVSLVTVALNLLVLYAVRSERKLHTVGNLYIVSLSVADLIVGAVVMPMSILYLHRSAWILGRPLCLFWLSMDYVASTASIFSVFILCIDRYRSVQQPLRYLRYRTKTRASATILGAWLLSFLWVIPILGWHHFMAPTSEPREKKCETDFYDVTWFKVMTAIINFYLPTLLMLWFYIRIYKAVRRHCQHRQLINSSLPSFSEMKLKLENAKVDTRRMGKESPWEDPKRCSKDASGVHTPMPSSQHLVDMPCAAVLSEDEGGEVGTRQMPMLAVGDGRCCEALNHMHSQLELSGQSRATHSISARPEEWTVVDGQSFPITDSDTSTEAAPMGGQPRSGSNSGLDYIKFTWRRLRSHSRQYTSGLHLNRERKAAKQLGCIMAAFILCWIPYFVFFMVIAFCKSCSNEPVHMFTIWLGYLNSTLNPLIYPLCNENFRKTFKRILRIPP
The assay can be described thus: H1-antagonistic activity in vitro, isolated guinea-pig ileum (method of Arunlakshana and Schild). In kind it is biochemical. As to conditions: for Kb: read-out: pA2 -value (Ileum) (converted).
Text: as §1

T1 sequence (P47747 whole entry): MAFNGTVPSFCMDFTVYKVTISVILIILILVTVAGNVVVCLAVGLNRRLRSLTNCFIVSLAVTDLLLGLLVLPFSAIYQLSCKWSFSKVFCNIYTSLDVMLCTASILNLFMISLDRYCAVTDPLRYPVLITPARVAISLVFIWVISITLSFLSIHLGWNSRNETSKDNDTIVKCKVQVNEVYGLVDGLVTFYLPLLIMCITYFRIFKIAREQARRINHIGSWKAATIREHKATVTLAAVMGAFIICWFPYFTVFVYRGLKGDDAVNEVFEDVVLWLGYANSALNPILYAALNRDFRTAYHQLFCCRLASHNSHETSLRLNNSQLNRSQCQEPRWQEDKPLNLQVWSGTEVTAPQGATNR

`N=C(NCCCCc1ccccn1)NCCCc1c[nH]cn1` [Example 2, N^1-[3-(1H-Imidazol-4-yl)propyl]-N^2-[4-(pyridin-2-yl)butyl]-guanidine hydriodide]: the EC50 in assay [1] was 112 nM. Also, in assay [2], the Kb is 309 nM.
For `N=C(NCCCc1c[nH]cn1)NCCCN(Cc1ccc(Cl)cc1)c1ccccn1` [Example 3, N^1-[3-(1H-Imidazol-4-yl)propyl]-N^2-[3-[N-(4-chlorobenzyl)-N-(pyridin-2-yl)amino]propyl]-guanidine hydriodide], the EC50 in assay [1] was 2140 nM. For the same compound, in assay [2], the Kb is 2.51 nM.
On the same counts, the results for `N=C(NCCCc1c[nH]cn1)NCCN(Cc1cccs1)c1ccccn1` [Example 4, N^1-[3-(1H-Imidazol-4-yl)propyl]-N^2 [2-[N-(pyridin-2-yl)-N-(thiophen-2-yl-methyl)amino]ethyl]-guanidine hydriodide] are 437 nM and 9.12 nM.
With `CC(CCNC(=N)NCCCc1c[nH]cn1)(c1ccccc1)c1ccccc1` [Example 8, N^1-[3-(1H-Imidazol-4-yl)propyl]-N^2-(3,3-diphenylbutyl)-guanidine hydrochloride], in assay [1], the EC50 is 123 nM. Besides, the Kb in assay [2] was 37.2 nM.
Taken in the same sequence, the figures for `N=C(NCCCc1c[nH]cn1)NCCC(c1ccc(Cl)c(Cl)c1)c1ccccn1` (centres unmarked) [Example 14, N^1-[3-(3,4-Dichlorophenyl)-3-(pyridin-2-yl)propyl]-N^2-[3-(1H-imidazol-4-yl)propyl]-guanidine] were 6.31 nM and 115 nM.
Taken in the same sequence, the figures for `N=C(NCCCc1c[nH]cn1)NCCC(c1ccccn1)c1ccc(Cl)cc1Cl` (centres unmarked) [Example 16, N^1-[3-(2,4-Dichlorophenyl)-3-(pyridin-2-yl)propyl]-N^2-[3-(1H-imidazol-4-yl)-propyl]-guanidine] were 13.8 nM and 112 nM.
Consider `NC(=NCCCc1c[nH]cn1)NCCC(c1ccc(F)c(F)c1)c1ccccn1` (centres unmarked) [Example 17, N^1-[3-(3,4-Difluorophenyl)-3-(pyridin-2-yl)propyl]-N^2-[3-(1H-imidazol-4-yl)propyl]-guanidine], for which, in assay [1], the EC50 was 7.59 nM. Further, in assay [2], the “pA2 -value (Ileum)” value is 7.07.
Take `N=C(NCCCc1c[nH]cn1)NCCC(c1cc(F)cc(F)c1)c1ccccn1` (centres unmarked) [Example 18, N^1-[3-(3,5-Difluorophenyl)-3-(pyridin-2-yl)propyl]-N^2-[3-(1H-imidazol-4-yl)propyl]-guanidine]: in assay [1], the EC50 was 8.91 nM. The Kb in assay [2] is 282 nM.
For the compound `NC(=NCCCc1c[nH]cn1)NCCC(c1cccc(Cl)c1)c1ccccn1` (centres unmarked) [Example 20, N^1-[3-(3-Chlorophenyl)-3-(pyridin-2-yl)propyl]-N^2-[3-(1H-imidazol-4-yl)propyl]-guanidine], the EC50 in assay [1] was 11.5 nM. Besides, the “pA2 -value (Ileum)” value in assay [2] is 7.05.
As to `NC(=NCCCc1c[nH]cn1)NCCC(c1ccc(F)cc1)c1cccnc1` (centres unmarked) [Example 24, N^1-[3-(4-Fluorophenyl)-3-(pyridin-3-yl)propyl]-N^2-[3-(1H-imidazol-4-yl)-propyl]-guanidine], in assay [1], the EC50 was 8.13 nM. Further, the “pA2 -value (Ileum)” value in assay [2] is 6.71.
